Results on three molecules are retold here after PMC6535779, “A Specific, Glycomimetic Langerin Ligand for Human Langerhans Cell Targeting” (ACS Central Science, 2019).

The assay has as its target T1, DC-SIGN CRD (Homo sapiens, UniProt Q9NNX6).
T1 construct: with the DC-SIGN CRD were performed at a receptor concentration of 50 μM; made in house
T1 sequence (Q9NNX6 263-378 limits assumed): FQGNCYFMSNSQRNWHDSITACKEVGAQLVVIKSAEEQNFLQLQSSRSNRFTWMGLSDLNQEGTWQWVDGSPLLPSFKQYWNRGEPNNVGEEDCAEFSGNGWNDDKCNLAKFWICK
The experiment in a line: 19F R2-filtered NMR reporter displacement assay with DC-SIGN. To be noted: for Ki: 19F R2-filtered NMR, DC-SIGN CRD, pH 7.0, 25 °C; for specificity: Table 1, Langerin against DC-SIGN. The assay is classed as binding. An excerpt: Figure S7. 19F R2-filtered NMR assay development with DC-SIGN. […]
substantial line broadeni ng. This phenomenon was utilized to develop the 19F R2-filtered NMR reporter displacement assay following the procedure previously published for Langerin 3. The spectrum in absence of DC -SIGN is processed with an exponential apodization function at 1.8 Hz. b. The interaction between 24 and DC-SIGN was quantified via the transversal relaxation rate R2,obs using the CPMG pulse sequence4-5. Representative decay curves in the presence of DC-SIGN are shown. c. The Ca2+-dependency of the interaction was validated via addition of EDTA. The R2,obs value in absence of DC-SIGN was determined from four independent experiments. The standard error for the experiments in presence of DC-SIGN and EDTA is derived directly from the fitting procedure. d. Relaxation dispersion experiments for 24 in presence of DC-SIGN indicate at negligible exchange contribution R2,ex at a νCPMG value of 500 Hz. In contrast to Langerin, a considerable exchange contribution is observed a lower νCPMG values. e. A representative binding isotherm for the affinity determination for 24 is shown. The KD value was determined from three independent titrations. The obtained K D and additional parameters from the fitting procedure are given in Tab le S3.
(1 picture or pasted object on this page, not shown here)
Receptor Expression and Purification
General remarks. Codon-optimized genes for the expression of Langerin and DC-SIGN in E. coli were purchased from GenScript and Life Technologies, respectively. All growth media or chemicals used for receptor expression and purification were purchased from Carl Roth if not stated otherwise. […]
Langerin and DC-SIGN carbohydrate recognition domain. Expression and purification were conducted as previously published14. Briefly, the monomeric 15N-labeled Langerin and DC-SIGN carbohydrate recognition domains (CRDs) were expressed insolubly in E. coli BL21* (DE3) (Invitrogen). Following enzymatic cell lysis, inclusion bodies were harvested and subsequently solubilized. The sample was centrifuged and the Langerin and DC-SIGN CRDs were refolded overnight via rapid dilution. Next, the sample was dialyzed overnight, centrifuged and purified via StrepTactin affinity chromatography (Iba). After an additional dialysis step overnight, the sample was centrifuged and the buffer was exchanged to 25 mM HEPES with 150 mM NaCl at pH 7.0 using 7 kDa size-exclusion desalting columns (Thermo Scientific) for 19F R2-filtered and 15N HSQC NMR experiments. The concentration of Langerin and DC -SIGN CRDs was determined via UV spectroscopy (A280, 0.1% = 3.19 and A280, 0.1% = 2.98). Purity and monodispersity of Langerin and DC - SIGN CRD samples were analyzed via SDS PAGE and DLS.
General remarks. 19F R2-filtered NMR experiments were conducted on a PremiumCompact 600 MHz spectrometer (Agilent). Spectra were processed in MestReNova and data analysis was performed with OriginPro 13, 15. Experiments with the Langerin ECD were performed at a receptor concentration of 50 μM in 25 mM Tris with 10% D2O, 150 mM NaCl and 5 mM CaCl2 at pH 7.8 and 25° C. Experiments […]
with the DC-SIGN CRD were performed at a receptor concentration of 50 μM in 25 mM HEPES with 10% D2O, 150 mM NaCl and 5 mM CaCl2 at pH 7.0 and 25°C. TFA served as an internal reference at a concentration of 50 μM. Apparent relaxation rates R2,obs for the reporter ligand were determined using the CPMG pulse sequence as previously published3-5.
Assay development for DC-SIGN. The 19F R2-filtered NMR reporter displacement assay for DC-SIGN was developed following the procedure previously published for Langerin3. Briefly, the KD value and the relaxation rate in bound state R2,b were determined at five concentrations [L]T of reporter ligand 24 in three independent titration experiments. Samples were prepared via serial dilution. The addition of 10 mM EDTA served to validate the Ca2+-dependency of the interaction between DC-SIGN and the reporter ligand. […]

Molecules are shown by their SMILES.

One may read the Ki as a measure of affinity in units of concentration, obtained from inhibition or displacement. Read a low Ki as higher affinity.

For the molecule `CC(=O)NCCO[C@@H]1O[C@H](CO)[C@@H](O)[C@H](O)[C@H]1NS(=O)(=O)c1ccc(C)cc1` [compound 16], the Ki is 15 ± 3 mM. For the same molecule, where the note is “from KI values”, the specificity is reported as 63 and the “specificity for Langerin against DC-SIGN” value came to 63 fold.
Turning to `CC(=O)NCCO[C@H]1O[C@H](CO)[C@@H](O)[C@H](O)[C@@H]1O` [compound 21], the Ki turned out to be 2.7 ± 0.3 mM. Under “from KI values”, the specificity came out at 0.27 and the “specificity for DC-SIGN over Langerin” value was found to be 3.7 fold.
In turn, `Cc1ccc(S(=O)(=O)N[C@H]2C(O)O[C@H](CO)[C@@H](O)[C@@H]2O)cc1` (some centres unmarked) [compound 2] had a Ki of 17 ± 1 mM. The specificity (from KI values) is recorded as 53.
